Source: publication PMC7316778 (Nature Communications, 2020)
Values joined by “and” are separate entries in the source; they are usually repeats but may differ in a detail not shown here. Equal values may be shown once. Read-outs that look alike come from different tables or passages of the source.

Key:
SRPK1 = SRPK1 (Homo sapiens, UniProt Q96SB4); test: SelectScreen kinase assay
Procedure: (§1) Selectivity profiling assays were performed by the Invitrogen SelectScreen™ Services. […] The concentration of ATP was selected to be equal to the KM, unless indicated otherwise.

TEC = target: T1, TEC (Homo sapiens, UniProt P42680); test: SelectScreen kinase assay; details: for Inhibition at 1 µM (%): LanthaScreen Binding
T1 sequence (P42680 1-631): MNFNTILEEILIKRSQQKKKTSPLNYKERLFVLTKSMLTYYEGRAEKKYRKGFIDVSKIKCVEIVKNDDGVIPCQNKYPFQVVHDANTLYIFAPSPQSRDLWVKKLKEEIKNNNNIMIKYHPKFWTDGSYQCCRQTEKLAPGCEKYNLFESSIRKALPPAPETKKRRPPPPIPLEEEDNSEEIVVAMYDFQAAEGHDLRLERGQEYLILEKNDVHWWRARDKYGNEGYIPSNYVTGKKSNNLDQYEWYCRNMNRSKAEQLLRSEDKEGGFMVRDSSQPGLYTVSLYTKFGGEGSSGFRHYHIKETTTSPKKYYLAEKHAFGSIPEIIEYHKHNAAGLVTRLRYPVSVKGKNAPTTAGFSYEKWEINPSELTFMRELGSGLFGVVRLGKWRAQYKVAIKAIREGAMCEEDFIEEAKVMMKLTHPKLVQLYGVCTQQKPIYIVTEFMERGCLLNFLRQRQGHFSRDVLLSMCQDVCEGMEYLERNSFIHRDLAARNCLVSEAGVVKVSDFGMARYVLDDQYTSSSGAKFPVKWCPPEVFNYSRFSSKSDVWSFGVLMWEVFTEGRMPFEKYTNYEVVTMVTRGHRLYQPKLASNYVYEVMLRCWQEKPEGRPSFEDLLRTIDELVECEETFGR
Procedure: as §1

PDGFRB (PDGFR beta) = PDGFRB (PDGFR beta) (Homo sapiens, UniProt P09619); test: SelectScreen kinase assay
Sequence of PDGFRB (PDGFR beta) (P09619 33-1106): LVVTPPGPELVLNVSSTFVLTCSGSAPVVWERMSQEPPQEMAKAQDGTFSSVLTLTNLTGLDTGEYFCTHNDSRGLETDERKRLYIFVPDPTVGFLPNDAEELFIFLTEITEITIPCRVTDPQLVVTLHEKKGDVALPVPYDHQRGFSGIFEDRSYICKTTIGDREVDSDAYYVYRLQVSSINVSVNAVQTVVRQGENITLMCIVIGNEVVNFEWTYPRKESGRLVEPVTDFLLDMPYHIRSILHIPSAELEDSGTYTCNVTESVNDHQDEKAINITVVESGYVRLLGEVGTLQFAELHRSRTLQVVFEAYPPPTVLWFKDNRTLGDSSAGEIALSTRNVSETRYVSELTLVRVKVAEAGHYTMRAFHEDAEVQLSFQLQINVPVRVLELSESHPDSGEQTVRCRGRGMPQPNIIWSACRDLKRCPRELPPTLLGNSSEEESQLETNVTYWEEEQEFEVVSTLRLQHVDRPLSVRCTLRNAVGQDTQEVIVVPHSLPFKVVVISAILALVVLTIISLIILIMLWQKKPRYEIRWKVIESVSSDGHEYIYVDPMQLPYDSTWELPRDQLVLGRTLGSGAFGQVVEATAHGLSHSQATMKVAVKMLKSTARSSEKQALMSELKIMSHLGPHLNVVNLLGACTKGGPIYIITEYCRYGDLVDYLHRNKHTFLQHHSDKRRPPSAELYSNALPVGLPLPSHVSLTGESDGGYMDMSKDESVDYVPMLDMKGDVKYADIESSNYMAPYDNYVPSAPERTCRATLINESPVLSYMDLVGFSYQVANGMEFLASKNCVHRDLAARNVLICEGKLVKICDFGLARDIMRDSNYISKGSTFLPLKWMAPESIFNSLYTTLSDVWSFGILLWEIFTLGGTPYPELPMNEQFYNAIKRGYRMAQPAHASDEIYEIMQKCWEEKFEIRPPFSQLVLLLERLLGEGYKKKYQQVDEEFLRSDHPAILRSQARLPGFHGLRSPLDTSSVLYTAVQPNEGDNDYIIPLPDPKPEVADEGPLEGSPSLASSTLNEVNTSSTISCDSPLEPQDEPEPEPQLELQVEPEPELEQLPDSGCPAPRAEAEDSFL
Procedure: as §1

CSNK1E (CK1 epsilon) = CSNK1E (CK1 epsilon) (Homo sapiens, UniProt P49674); test: SelectScreen kinase assay; details: for Inhibition at 1 µM (%): CSNK1E (CK1 epsilon), ZLYTE, ATP Km app
Sequence of CSNK1E (CK1 epsilon) (P49674 whole entry): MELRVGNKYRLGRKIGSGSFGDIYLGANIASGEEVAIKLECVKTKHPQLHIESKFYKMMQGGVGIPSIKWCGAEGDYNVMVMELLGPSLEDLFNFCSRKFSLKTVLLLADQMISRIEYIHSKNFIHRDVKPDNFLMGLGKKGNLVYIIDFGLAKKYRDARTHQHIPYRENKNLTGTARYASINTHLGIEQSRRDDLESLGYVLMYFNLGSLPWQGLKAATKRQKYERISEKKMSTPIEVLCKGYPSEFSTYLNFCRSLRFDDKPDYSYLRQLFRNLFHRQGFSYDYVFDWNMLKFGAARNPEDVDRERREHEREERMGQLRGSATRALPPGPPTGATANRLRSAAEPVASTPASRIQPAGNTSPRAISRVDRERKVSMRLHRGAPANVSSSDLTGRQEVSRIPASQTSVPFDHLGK
Procedure: as §1

PRKCD (PKC delta) = PRKCD (PKC delta) (Homo sapiens, UniProt Q05655); test: SelectScreen kinase assay; details: 1 h, 1 μM WEL028, 1 h preincubation
Procedure: as §1

FLT4 (VEGFR3) = FLT4 (VEGFR3) (Homo sapiens, UniProt P35916); test: SelectScreen kinase assay
Sequence of FLT4 (VEGFR3) (P35916 25-1363, species assumed): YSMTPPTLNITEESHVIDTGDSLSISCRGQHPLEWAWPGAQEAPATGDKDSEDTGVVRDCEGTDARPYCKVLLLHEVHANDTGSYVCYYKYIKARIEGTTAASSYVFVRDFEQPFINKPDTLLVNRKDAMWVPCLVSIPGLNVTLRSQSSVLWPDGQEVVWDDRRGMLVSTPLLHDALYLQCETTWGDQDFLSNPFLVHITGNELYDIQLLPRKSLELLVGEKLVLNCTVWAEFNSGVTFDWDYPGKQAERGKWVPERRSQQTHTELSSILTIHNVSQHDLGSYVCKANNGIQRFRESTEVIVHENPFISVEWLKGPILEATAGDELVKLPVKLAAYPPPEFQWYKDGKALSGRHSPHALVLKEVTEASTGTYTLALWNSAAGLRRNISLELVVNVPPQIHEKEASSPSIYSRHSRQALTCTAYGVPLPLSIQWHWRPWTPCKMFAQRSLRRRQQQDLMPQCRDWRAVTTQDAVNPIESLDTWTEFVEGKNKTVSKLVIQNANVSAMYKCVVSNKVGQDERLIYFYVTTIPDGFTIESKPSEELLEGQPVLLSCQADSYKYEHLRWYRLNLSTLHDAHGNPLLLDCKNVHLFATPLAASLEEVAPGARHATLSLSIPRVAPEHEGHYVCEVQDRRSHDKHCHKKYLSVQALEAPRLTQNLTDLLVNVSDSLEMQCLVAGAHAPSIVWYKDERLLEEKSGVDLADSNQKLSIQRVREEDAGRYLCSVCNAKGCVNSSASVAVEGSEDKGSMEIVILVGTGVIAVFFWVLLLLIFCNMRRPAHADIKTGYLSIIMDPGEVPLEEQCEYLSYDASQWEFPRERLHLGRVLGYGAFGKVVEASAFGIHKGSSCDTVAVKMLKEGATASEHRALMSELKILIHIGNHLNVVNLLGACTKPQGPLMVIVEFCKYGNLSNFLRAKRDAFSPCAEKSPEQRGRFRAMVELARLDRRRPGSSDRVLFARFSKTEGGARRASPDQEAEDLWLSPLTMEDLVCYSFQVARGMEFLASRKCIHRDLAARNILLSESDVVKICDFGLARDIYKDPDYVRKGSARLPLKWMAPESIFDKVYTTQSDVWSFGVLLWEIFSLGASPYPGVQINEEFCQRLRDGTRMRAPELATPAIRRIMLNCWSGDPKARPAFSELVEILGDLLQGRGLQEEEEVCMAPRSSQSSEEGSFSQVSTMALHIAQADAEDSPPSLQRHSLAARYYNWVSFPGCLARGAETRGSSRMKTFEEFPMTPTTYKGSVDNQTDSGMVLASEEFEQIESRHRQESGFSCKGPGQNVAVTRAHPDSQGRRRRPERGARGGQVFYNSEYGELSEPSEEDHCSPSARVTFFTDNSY
Procedure: as §1

ERN1 = ERN1 (Homo sapiens, UniProt O75460); test: SelectScreen kinase assay; details: for Inhibition at 1 µM (%): ERN1, LanthaScreen Binding
Sequence of ERN1 (O75460 19-977): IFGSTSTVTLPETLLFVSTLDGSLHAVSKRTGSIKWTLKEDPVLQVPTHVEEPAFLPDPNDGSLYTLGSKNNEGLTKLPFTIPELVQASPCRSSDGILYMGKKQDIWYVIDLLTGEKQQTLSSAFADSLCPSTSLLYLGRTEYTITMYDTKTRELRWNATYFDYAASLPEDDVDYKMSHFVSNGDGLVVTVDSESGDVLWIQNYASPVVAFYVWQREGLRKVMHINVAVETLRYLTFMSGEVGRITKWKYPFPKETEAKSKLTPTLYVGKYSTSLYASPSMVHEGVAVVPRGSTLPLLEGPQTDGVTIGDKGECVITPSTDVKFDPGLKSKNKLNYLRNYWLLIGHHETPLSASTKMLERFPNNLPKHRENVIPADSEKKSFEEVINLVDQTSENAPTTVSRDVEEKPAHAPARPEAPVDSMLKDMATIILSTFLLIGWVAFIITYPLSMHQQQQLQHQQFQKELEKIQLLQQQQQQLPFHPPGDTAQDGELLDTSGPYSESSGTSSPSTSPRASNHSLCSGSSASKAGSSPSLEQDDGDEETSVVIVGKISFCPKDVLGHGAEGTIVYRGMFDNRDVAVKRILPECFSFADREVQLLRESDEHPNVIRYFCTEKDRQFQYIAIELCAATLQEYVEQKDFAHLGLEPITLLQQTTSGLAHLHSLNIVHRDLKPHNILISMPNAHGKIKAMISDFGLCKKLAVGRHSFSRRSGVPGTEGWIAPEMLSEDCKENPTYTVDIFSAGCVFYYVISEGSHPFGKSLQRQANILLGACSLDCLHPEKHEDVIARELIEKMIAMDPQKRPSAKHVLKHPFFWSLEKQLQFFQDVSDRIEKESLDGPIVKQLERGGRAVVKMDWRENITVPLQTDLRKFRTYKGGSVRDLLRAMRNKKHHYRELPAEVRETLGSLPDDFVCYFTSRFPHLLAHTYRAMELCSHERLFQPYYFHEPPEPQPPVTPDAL
Procedure: as §1

GRK4 = GRK4 (Homo sapiens, UniProt P32298); test: SelectScreen kinase assay; details: for Inhibition at 1 µM (%): GRK4, ZLYTE, ATP Km app
Procedure: as §1

GSG2 (Haspin) = GSG2 (Haspin) (Homo sapiens, UniProt Q8TF76); test: SelectScreen kinase assay
Procedure: as §1

MLK4 = MLK4 (Homo sapiens, UniProt Q5TCX8); test: SelectScreen kinase assay
Procedure: as §1

SBK1 = SBK1 (Homo sapiens, UniProt Q52WX2); test: SelectScreen kinase assay
Procedure: as §1

STK38L (NDR2) = STK38L (NDR2) (Homo sapiens, UniProt Q9Y2H1); test: SelectScreen kinase assay; details: for Inhibition at 1 µM (%): LanthaScreen Binding
Sequence of STK38L (NDR2) (Q9Y2H1 whole entry): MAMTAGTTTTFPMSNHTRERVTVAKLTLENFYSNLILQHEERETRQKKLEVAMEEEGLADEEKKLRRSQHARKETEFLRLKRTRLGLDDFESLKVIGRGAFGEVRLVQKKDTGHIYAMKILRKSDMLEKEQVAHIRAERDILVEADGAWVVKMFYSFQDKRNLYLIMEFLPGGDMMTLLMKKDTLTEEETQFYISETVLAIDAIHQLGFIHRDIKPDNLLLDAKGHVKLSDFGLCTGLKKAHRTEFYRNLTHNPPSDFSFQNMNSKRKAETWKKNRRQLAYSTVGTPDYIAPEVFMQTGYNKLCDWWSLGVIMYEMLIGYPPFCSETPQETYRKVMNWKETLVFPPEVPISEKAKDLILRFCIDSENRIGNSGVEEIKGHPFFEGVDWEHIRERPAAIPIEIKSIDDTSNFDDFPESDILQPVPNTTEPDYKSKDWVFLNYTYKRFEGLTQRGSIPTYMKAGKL
Procedure: as §1

[1] = target: T2, endogenous FES^S700C in HL-60 cells (Homo sapiens, UniProt P07332, S700C); test: Gel-based target engagement during neutrophil differentiation; format: cell-based; details: 100 nM; Supplementary Figure 12b; individual replicates; listed as WEL028
T2 construct: endogenous in cells; host or cells: HL-60 FES^S700C clone, differentiated to macrophages or neutrophils
T2 sequence (P07332 whole entry S700C): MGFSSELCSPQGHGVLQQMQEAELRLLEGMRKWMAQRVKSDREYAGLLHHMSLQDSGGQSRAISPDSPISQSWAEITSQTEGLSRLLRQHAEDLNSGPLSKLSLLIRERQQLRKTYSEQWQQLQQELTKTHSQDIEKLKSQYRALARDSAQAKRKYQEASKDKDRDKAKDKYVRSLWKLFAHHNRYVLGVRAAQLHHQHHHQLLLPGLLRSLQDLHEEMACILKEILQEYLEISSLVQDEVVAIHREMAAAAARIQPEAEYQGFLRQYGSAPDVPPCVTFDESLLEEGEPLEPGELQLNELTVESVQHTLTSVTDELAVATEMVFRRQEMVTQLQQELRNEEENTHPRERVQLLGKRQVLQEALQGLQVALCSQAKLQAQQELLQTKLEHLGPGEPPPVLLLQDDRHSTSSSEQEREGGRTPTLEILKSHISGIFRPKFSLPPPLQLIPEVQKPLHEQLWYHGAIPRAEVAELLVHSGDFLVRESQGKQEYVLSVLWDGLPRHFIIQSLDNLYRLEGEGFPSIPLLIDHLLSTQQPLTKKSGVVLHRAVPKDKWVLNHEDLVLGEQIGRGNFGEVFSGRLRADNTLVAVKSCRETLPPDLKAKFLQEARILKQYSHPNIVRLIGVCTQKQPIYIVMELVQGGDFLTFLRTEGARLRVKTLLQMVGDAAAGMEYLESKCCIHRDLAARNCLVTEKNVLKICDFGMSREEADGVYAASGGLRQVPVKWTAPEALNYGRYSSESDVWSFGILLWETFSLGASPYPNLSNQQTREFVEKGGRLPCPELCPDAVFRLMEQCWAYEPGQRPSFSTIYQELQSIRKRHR

[2] = 1 µM, ZLYTE, ATP Km app, listed as WEL028, 1 µM
[3] = 1 h, 1 μM WEL028, 1 h preincubation

**Q.** How did the “Inhibition at 1 µM (%)” value (SRPK1; [2]) turn out when C#CCOc1ccc(Nc2ncc(Cl)c(Nc3ccccc3NC(=O)C=C)n2)c(OC)c1 [Compound 6] was run?
**A.** 2% and 11%

**Q.** And the inhibition at 1 µM (SRPK1; [3])?
**A.** 7%

**Q.** What about the “Inhibition at 1 µM (%)” value (TEC) of the same molecule?
**A.** 2%

**Q.** And the “Inhibition at 1 µM (%)” value (TEC; listed as WEL028, 1 µM)?
**A.** 7%

**Q.** And the inhibition at 1 µM (TEC; [3])?
**A.** 5%

**Q.** What about the inhibition at 1 µM (PDGFRB (PDGFR beta); [3]) of the same molecule?
**A.** 22%

**Q.** What about the “Inhibition at 1 µM (%)” value (PDGFRB (PDGFR beta); PDGFRB (PDGFR beta), 1 µM, ZLYTE, ATP Km app, listed as WEL028, 1 µM) of the same molecule?
**A.** 23%

**Q.** What about the inhibition at 1 µM (PDGFRB (PDGFR beta); read-out: Inhibition at 1 µM (%), PDGFRB (PDGFR beta), 1 µM, ZLYTE, ATP Km app) of the same molecule?
**A.** 21%

**Q.** And the inhibition at 1 µM (CSNK1E (CK1 epsilon); [3])?
**A.** 9%

**Q.** And the “Inhibition at 1 µM (%)” value (CSNK1E (CK1 epsilon))?
**A.** 14%

**Q.** And the “Inhibition at 1 µM (%)” value (CSNK1E (CK1 epsilon); listed as WEL028, 1 µM)?
**A.** 4%

**Q.** And the inhibition at 1 µM (PRKCD (PKC delta))?
**A.** 14%

**Q.** And the IC50 (FLT4 (VEGFR3))?
**A.** 200 nM

**Q.** What about the inhibition at 1 µM (FLT4 (VEGFR3); [3]) of the same molecule?
**A.** 120%

**Q.** And the inhibition at 10 µM (FLT4 (VEGFR3); 1 h, log[inhibitor] (M) -5.00, ZLYTE, ATP Km app)?
**A.** 103%

**Q.** And the inhibition at 3.31 µM (FLT4 (VEGFR3); 1 h, log[inhibitor] (M) -5.48, ZLYTE, ATP Km app)?
**A.** 100%

**Q.** What about the inhibition at 1.12 µM (FLT4 (VEGFR3); 1 h, log[inhibitor] (M) -5.95, ZLYTE, ATP Km app) of the same molecule?
**A.** 95%

**Q.** And the inhibition at 0.372 µM (FLT4 (VEGFR3); 1 h, log[inhibitor] (M) -6.43, ZLYTE, ATP Km app)?
**A.** 70%

**Q.** And the inhibition at 0.123 µM (FLT4 (VEGFR3); 1 h, log[inhibitor] (M) -6.91, ZLYTE, ATP Km app)?
**A.** 38%

**Q.** And the inhibition at 0.04074 µM (FLT4 (VEGFR3); 1 h, log[inhibitor] (M) -7.39, ZLYTE, ATP Km app)?
**A.** 9%

**Q.** What about the inhibition at 0.0138 µM (FLT4 (VEGFR3); 1 h, log[inhibitor] (M) -7.86, ZLYTE, ATP Km app) of the same molecule?
**A.** 4%

**Q.** What about the inhibition at 0.00151 µM (FLT4 (VEGFR3); 1 h, log[inhibitor] (M) -8.82, ZLYTE, ATP Km app) of the same molecule?
**A.** 2%

**Q.** And the inhibition at 1 µM (FLT4 (VEGFR3); read-out: Inhibition at 1 µM (%), FLT4 (VEGFR3), 1 µM, ZLYTE, ATP Km app)?
**A.** 121%

**Q.** And the inhibition at 1 µM (ERN1; [3])?
**A.** 8%

**Q.** What about the “Inhibition at 1 µM (%)” value (ERN1) of the same molecule?
**A.** 13%

**Q.** And the “Inhibition at 1 µM (%)” value (ERN1; listed as WEL028, 1 µM)?
**A.** 4%

**Q.** And the inhibition at 1 µM (GRK4; [3])?
**A.** -1%

**Q.** What about the “Inhibition at 1 µM (%)” value (GRK4) of the same molecule?
**A.** -2%

**Q.** What about the “Inhibition at 1 µM (%)” value (GRK4; listed as WEL028, 1 µM) of the same molecule?
**A.** 1%

**Q.** What about the inhibition at 1 µM (GSG2 (Haspin); [3]) of the same molecule?
**A.** 6%

**Q.** What about the “Inhibition at 1 µM (%)” value (GSG2 (Haspin); GSG2 (Haspin), 1 µM, Adapta, ATP Km app) of the same molecule?
**A.** 20%

**Q.** And the inhibition at 1 µM (MLK4; [3])?
**A.** 3%

**Q.** And the “Inhibition at 1 µM (%)” value (MLK4; MLK4, 1 µM, LanthaScreen Binding, listed as WEL028, 1 µM)?
**A.** 6% and 0%

**Q.** What about the “Inhibition at 1 µM (%)” value (SBK1; [2]) of the same molecule?
**A.** 1% and 8%

**Q.** And the inhibition at 1 µM (SBK1; [3])?
**A.** 5%

**Q.** What about the “Inhibition at 1 µM (%)” value (STK38L (NDR2)) of the same molecule?
**A.** 2%

**Q.** And the “Inhibition at 1 µM (%)” value (STK38L (NDR2); listed as WEL028, 1 µM)?
**A.** 7%

**Q.** And the inhibition at 1 µM (STK38L (NDR2); [3])?
**A.** 5%

**Q.** And the “Relative FES labeling (%)” value [1]?
**A.** 10.1064% and 13.5252% and 6.003%
